Results as given in paper PMC11224403, “Des-acyl ghrelin reduces alcohol intake and alcohol-induced reward in rodents” (Translational Psychiatry, 2024).

Key:
[1] = system: monoaminergic neurotransmission in VTA and other brain areas; test: Ex vivo monoamine content (HPLC-EC) in brain areas of alcohol-drinking rats after repeated DAG; set-up: species or system Rcc Han Wistar rats
Text: (§1) Male and female Rcc Han Wistar rats (8–12 weeks old at arrival; Envigo, Horst, Netherlands) were used for the alcohol drinking and locomotor activity experiments as they drink alcohol to intoxicating levels. For in vivo microdialysis studies male Wistar rats (Charles River, Calco, Italy) were used as they display robust dopamine levels in NAc shell after alcohol injection. […] All rodents were allowed to habituate to the animal facility at least one week before they entered an experiment. During housing (20 °C with 50% humidity) the rodents had free access to water and standard chow (Teklad Rodent Diet; Envigo, Madison, WI, USA). These experiments were approved by the Ethics Committee for Animal Experiments (ethical numbers: 1457/18, 3276/18, 1556/18, 3348/20; Gothenburg, Sweden) and followed the ARRIVE guidelines. The sample sizes of each experiment were based on previous experience in which statistical significance has been detected. The person who conducted the experiments, and analyzed the collected data was aware of the treatment allocation. Only preset exclusion criteria were used when analyzing the data obtained in attempts to exclude confounding factors in analyzing data. In the alcohol drinking experiments leaking bottles and low alcohol consumption (<3.0 g/kg for males; <3.5 g/kg for females) were preset exclusion criteria. The preset exclusion criterion in the ex vivo HPLC-EC, ELISA, and recombinant cell line experiments was contamination of the sample. Misplaced probes, technical difficulties, and damages to the surgery area were preset exclusion criteria for the in vivo microdialysis experiment. Intra-cage male aggression was the preset exclusion criterion for the locomotor activity and CPP experiments. To minimize tentative confounding factors, the order of treatments was stratified, with treatments being mixed for each animal cage and for each apparatus used as well as balancing the alcohol intake between future treatment groups. Although each experiment only was performed once, they were separated over different laboratory days with equal data obtained between sessions.
Individually housed rats had intermittent access to an alcohol (20%) bottle and a water bottle, three 24-h sessions per week, and only water bottles the remaining days. A reversed light/dark cycle was used, and the bottles were changed when the lights went out. First, the rats consumed alcohol for 10 weeks (baseline drinking), where the bottles and food were weighed daily and the body weight weekly. During treatments, the bottles and food were weighed at 4- and/or 24-h and the body weight was measured daily. In the first drinking experiment, the potential of DAG to reduce alcohol consumption was tested and therefore, vehicle or DAG (1 mg/kg) was acutely injected into male (n = 12) or female (n = 12) rats. The second drinking experiment was conducted to establish the effects of lower DAG doses on alcohol intake. Therefore, separate male (n = 18) or female (n = 18) rats, were acutely injected with lower DAG doses (0.5 or 0.25 mg/kg) or vehicle. The third alcohol drinking experiment evaluated the ability of repeated DAG injections to lower alcohol drinking. Therefore, additional male (n = 24) and female (n = 24) rats were injected with either vehicle or DAG (1 mg/kg) at three alcohol-drinking sessions. At the end of the third drinking session, the rats were euthanized and decapitated, and the brains were placed in a brain-slicing matrix. Brain areas central for reward (VTA, NAc shell, NAc core, LDTg, dorsal striatum, hippocampus, paraventricular thalamus, prefrontal cortex, central amygdala) were punched and stored at −80 °C. Each sample was homogenized, and then the monoamine content in the supernatant was analyzed in an HPLC-EC system as described before, allowing tentative determination of brain regions, directly or indirectly, affected by DAG.
The obtained data are normally distributed and with equal variance. […]

[2] = system: male mice; test: Locomotor activity test, alcohol-induced stimulation and DAG per se, mice; assay type: in vivo, NMRI mice
Text: as §1, with “During housing (20 °C with 50% humidity) the rodents had free access to water and standard chow (Teklad Rodent Diet; Envigo, Madison, WI, USA). These experiments were approved by the Ethics Committee for Animal Experiments (ethical numbers: 1457/18, 3276/18, 1556/18, 3348/20; Gothenburg, Sweden) and followed the ARRIVE guidelines.” left out, “groups.” for “groups. Although each experiment only was performed once, they were separated over different laboratory days with equal data obtained between sessions.”
Alcohol was in the behavioral and neurochemical tests injected (intraperitoneally, IP) 5 min before the test.
Locomotor activity tests were conducted in ventilated and dim-lit (4 lux) open field arenas (420 × 420 × 200 mm; Med Associates Inc; Georgia, Vermont, USA). Infra-red beams detected distance traveled, number of jumps, vertical counts, average velocity, stereotypic counts, number of inner zone entries, and time spent in the inner/outer zones of each animal.
In the first test, after 60 min of habituation, male (n = 24) or female (n = 24) rats were injected with vehicle or DAG (0.5, 1.0, or 2.0 mg/kg). 15 min later the activity was monitored for another 60 min. In the second locomotor activity experiment, male mice (n = 32) were allowed to habituate for 60 min. After that, they were injected with vehicle or DAG (0.25, 0.5, or 1.0 mg/kg). After 15 min the activity was monitored for another 60 min.
Therefore, male mice were (n = 32) injected with DAG (1.0 mg/kg) or vehicle 15 min before alcohol or vehicle. The activity registration started 5 min later and was recorded for an additional 60 min. Identical locomotor activity experiments were conducted in new male mice (n = 32), where a lower dose of DAG (0.5 mg/kg) was combined with alcohol.
The data from drinking experiments were analyzed by unpaired t-test or repeated two-way ANOVA. A two-tailed unpaired t-test analyzed the ELISA, ex vivo HPLC-EC, and cFOS data. In addition, the Pearson test correlated the serum levels and the mean values of alcohol intake in rats. A one-way ANOVA with Bonferroni post hoc tests and unpaired t-test analyzed the locomotor activity and CPP data, respectively. The in vivo microdialysis experiments were evaluated by a repeated two-way ANOVA followed by the Bonferroni post hoc test.

[3] = system: SERT; test: Transporter inhibition in recombinant cell line, SERT; assay type: cell-based, human; conditions: 8.3 µM DAG; recombinant cells, 3 h incubation, fluorescence dye
[4] = alcohol-drinking female rats, repeated DAG n = 7 vs vehicle n = 9
[5] = alcohol-drinking male rats, repeated DAG n = 8 vs vehicle n = 7

## des-acyl ghrelin (GSSFLSPEHQRVQQRKESKKPPAKLQPR; Ghrelin-28 non-acylated; UniProt Q9UBU3 24-51, looked up) [DAG, non-octanoylated form of ghrelin; purchased from Tocris (printed Tocrise Bioscience), dissolved in 0.9% NaCl]
[1]; [4]
  ex vivo DOPAC level, VTA: did not change the levels of D DOPAC (t14 = 0.41, P = 0.6904)
  ex vivo HVA level, VTA: did not change the levels of D DOPAC (t14 = 0.41, P = 0.6904), E HVA (t14 = 0.66, P = 0.5196)
  ex vivo dopamine level, VTA: did not change the levels of D DOPAC (t14 = 0.41, P = 0.6904), E HVA (t14 = 0.66, P = 0.5196), or F dopamine (t14 = 0.12, P = 0.9080)
[1]; alcohol-drinking male or female rats, repeated DAG
  dopamine turnover, 5-HIAA, serotonin and serotonin turnover, VTA: neither affected the dopamine turnover, 5-hydroxy indole acetic acid (5-HIAA), serotonin, nor serotonin turnover
[1]; alcohol-drinking male rats, repeated DAG
  ex vivo noradrenaline level, VTA: tended to elevate the ex vivo noradrenaline levels in this area of male rats (Supplementary Fig. 4E, P = 0.0819)
[1]; [5]
  ex vivo DOPAC level, VTA: increased the ex vivo levels of A DOPAC (t13 = 2.94, P = 0.0116)
  ex vivo HVA level, VTA: increased the ex vivo levels of A DOPAC (t13 = 2.94, P = 0.0116) and B HVA (t13 = 3.00, P = 0.0102)
  ex vivo dopamine level, VTA: tended to elevate the dopamine levels (t13 = 1.72, P = 0.1091)
[1]; males and females, repeated DAG, central amygdala, hippocampus, laterodorsal tegmental area, NAc core and shell, prefrontal cortex, paraventricular thalamus, striatum, data not shown
  monoaminergic neurotransmission in other brain areas: Neither in males nor females, DAG altered the monoaminergic neurotransmission
[2]; DAG 0.5 mg/kg plus alcohol, n = 8 per group (vehicle-vehicle one removed)
  alcohol-induced locomotor stimulation (effect of DAG): reduced but did not block (P = 0.5319)
[2]; DAG 1 mg/kg 15 min before alcohol 1.75 g/kg IP, n = 8 per group
  alcohol-induced locomotor stimulation (effect of DAG): prevented the alcohol-induced locomotor stimulation (P = 0.0305)
[2]; DAG 1 mg/kg without alcohol, n = 8 per group
  locomotor activity, DAG per se: did not alter the activity of the mice (P > 0.9999)
[2]; DAG 0.25, 0.5 or 1.0 mg/kg, 60 min recording, n = 8 per group, data not shown
  locomotor activity, DAG per se, dose finding: did not influence locomotor activity
[3]
  inhibition of SERT: no inhibition
